Reference: paper PMC3172300, “Modulation of Catalytic Activity in Multi-Domain Protein Tyrosine Phosphatases” (PLoS ONE, 2011)
Where “and” joins values, the source holds several entries; their conditions need not be identical. Equal entries are not always repeated. Where two headings read alike, the source gives them in different places. Square brackets hold non-standard residues; d marks the D form. Peptide text beside a SMILES is read from it. pY = N[C@@H](Cc1ccc(OP(=O)(O)O)cc1)C(=O)O

Columns and labels:
DLAR D1 D2HSS [1] = target: T1, DLAR D1 D2HSS (Drosophila melanogaster, UniProt P16621, C1961S); assay: Surface Plasmon Resonance peptide binding, DLAR D1 D2HSS; conditions: two-site model, read-out: ka
T1 construct: DLAR 1448-2029; His tag (pET-15b or pET-22b); made in house; host or cells: E. coli BL21(DE3)
T1 sequence (P16621 1448-2029 C1961S): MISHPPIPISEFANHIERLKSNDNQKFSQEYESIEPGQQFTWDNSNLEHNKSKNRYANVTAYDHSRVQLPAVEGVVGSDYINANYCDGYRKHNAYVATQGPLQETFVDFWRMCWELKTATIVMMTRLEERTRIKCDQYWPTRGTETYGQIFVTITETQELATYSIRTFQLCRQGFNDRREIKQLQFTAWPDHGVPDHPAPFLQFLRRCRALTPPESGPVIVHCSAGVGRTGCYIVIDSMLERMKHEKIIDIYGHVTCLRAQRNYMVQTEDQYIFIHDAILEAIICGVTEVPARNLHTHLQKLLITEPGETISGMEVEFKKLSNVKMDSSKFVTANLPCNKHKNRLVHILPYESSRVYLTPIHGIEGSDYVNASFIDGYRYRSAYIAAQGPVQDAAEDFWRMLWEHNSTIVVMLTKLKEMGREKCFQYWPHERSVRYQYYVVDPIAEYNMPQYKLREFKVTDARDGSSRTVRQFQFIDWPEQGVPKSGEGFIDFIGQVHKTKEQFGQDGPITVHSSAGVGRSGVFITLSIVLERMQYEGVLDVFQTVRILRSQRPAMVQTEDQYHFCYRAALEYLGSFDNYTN
Description: The binding of phosphotyrosine peptides to the PTP domains was studied by Surface Plasmon Resonance on a Biacore-2000 instrument (BIAcore, AB). All experiments were conducted at 25°C. DLAR PTP domains were immobilized onto carboxylated dextran CM5 chips (BIAcore AB) using the standard amine coupling procedure as recommended by the manufacturer. Binding and kinetic assays were performed in 10 mM HEPES, pH 8.0, 150 mM NaCl, 10 mM DTT and 3 mM EDTA at a flow rate of 5 µL/min. The peptides were used at concentrations ranging from 50–700 µM. Dissociation was initiated by replacing the analyte with buffer. The association and dissociation curves were monitored for 600 sec. Sensograms were analyzed with BIA-evaluation software version 2 (BIAcore AB). Sensograms for DLAR D1D2, DLAR D1HSSD2 and DLAR D1D2HSS were fitted to two-site binding equations. DLAR D1 and DLAR D2 sensograms were fitted using a single-site binding model.

[2] = tested on: PTP99A D1 active site cysteine to serine mutant; assay: Phosphatase assay using pNPP, PTP99A D1 active site Cys to Ser mutant; assay type: biochemical, Drosophila melanogaster; conditions: active site cysteine to serine in D1
Excerpt: Cosmids containing the genes encoding RPTPs DLAR and PTP99A were a kind gift from Prof. Kai Zinn (Caltech). The PTP domains of PTP99A and DLAR were PCR amplified and ligated between the NheI and XhoI restriction sites of the bacterial expression vectors pET-15b and pET-22b. The active site mutants (with the nucleophilic cysteines in the PTP domains of DLAR and PTP99A mutated to serines) were obtained by using a single primer approach. An XbaI site was incorporated in the primers to aid screening of mutants. All clones were confirmed by sequencing (Macrogen Inc.). The details of the expression constructs are compiled in Table S1 and Figure 1a.
Phosphatase activity of the recombinant PTP domains was determined by using para-Nitrophenylphosphate (pNPP), a small molecule generic substrate, as well as phosphotyrosine containing peptides. The pNPP assay was performed as reported previously, with a modification in the buffer composition (25 mM Citrate, Glycine and HEPES (CGH), pH 6.5, 100 mM NaCl and 2 mM DTT). Phosphatase activity with the phosphotyrosine peptides was ascertained by the malachite green reaction as described for PTPs previously. […] The reaction was stopped by the addition of the Biomol Green reagent (Enzo Life Sciences) and the colour developed after 20 min was quantified at 650 nm. […]

PTP99A D1 = target: T2, PTP99A D1 (Drosophila melanogaster, UniProt P35832); assay: Phosphatase assay using pNPP, PTP99A D1; assay type: biochemical; design: PTP99A 450-756; His tag (pET-15b or pET-22b); made in house; host or cells: E. coli BL21(DE3); conditions: CGH buffer pH 6.5, 100 mM NaCl, 2 mM DTT
T2 sequence (P35832 450-756): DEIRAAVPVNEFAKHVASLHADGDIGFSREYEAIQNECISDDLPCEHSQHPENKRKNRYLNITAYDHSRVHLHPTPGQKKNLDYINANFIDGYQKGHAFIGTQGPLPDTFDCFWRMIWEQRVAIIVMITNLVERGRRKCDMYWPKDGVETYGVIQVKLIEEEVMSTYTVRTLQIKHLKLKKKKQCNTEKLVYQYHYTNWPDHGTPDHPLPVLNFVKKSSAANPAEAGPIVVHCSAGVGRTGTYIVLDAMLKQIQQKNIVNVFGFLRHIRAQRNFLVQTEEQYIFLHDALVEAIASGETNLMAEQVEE
Description: (§1) Phosphatase activity of the recombinant PTP domains was determined by using para-Nitrophenylphosphate (pNPP), a small molecule generic substrate, as well as phosphotyrosine containing peptides. The pNPP assay was performed as reported previously, with a modification in the buffer composition (25 mM Citrate, Glycine and HEPES (CGH), pH 6.5, 100 mM NaCl and 2 mM DTT). Phosphatase activity with the phosphotyrosine peptides was ascertained by the malachite green reaction as described for PTPs previously. Briefly, the reaction mixture comprised of 0.01 µM protein incubated with increasing concentrations of different peptides in 25 mM citrate buffer pH 6.0, 100 mM NaCl and 2 mM DTT for 15 min at 25°C. The reaction was stopped by the addition of the Biomol Green reagent (Enzo Life Sciences) and the colour developed after 20 min was quantified at 650 nm. For all the assays, kinetic constants for the steady state catalysis were obtained by fitting the reaction curves to the Michaelis-Menten equation using the nonlinear regression module of Sigma plot software (Systat Software, Inc.).
The tandem PTP domains of PTP99A (PTP99A D1D2) and DLAR (DLAR D1D2) , the individual PTP domains (D1 and D2) as well as the active site mutants were expressed in E. coli and were purified using the protocols described earlier (Figure 1a, Figure S1a, b & c). […]

DLAR D1D2 = target: T3, DLAR D1D2 (Drosophila melanogaster, UniProt P16621); assay: Phosphatase assay using pNPP, DLAR D1D2; assay type: biochemical; conditions: 2 mM DTT
T3 construct: DLAR 1448-2029; His tag (pET-15b or pET-22b); made in house; host or cells: E. coli BL21(DE3)
T3 sequence (P16621 1448-2029): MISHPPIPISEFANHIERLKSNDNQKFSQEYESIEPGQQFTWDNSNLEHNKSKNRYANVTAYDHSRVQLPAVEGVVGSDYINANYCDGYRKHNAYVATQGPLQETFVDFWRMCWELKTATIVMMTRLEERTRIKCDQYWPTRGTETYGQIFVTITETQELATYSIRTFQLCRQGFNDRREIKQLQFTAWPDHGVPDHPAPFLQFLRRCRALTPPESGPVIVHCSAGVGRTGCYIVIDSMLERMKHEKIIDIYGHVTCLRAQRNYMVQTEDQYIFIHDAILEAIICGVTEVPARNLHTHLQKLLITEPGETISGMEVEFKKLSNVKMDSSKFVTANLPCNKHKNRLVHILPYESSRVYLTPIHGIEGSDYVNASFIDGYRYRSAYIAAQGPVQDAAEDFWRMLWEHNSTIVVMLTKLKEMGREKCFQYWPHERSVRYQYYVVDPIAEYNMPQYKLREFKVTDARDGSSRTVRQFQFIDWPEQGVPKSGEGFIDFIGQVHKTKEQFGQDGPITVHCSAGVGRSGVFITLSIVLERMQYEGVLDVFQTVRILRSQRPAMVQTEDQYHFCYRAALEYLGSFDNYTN
Description: as §1
(§2) The tandem PTP domains of PTP99A (PTP99A D1D2) and DLAR (DLAR D1D2) , the individual PTP domains (D1 and D2) as well as the active site mutants were expressed in E. coli and were purified using the protocols described earlier (Figure 1a, Figure S1a, b & c). The biochemical characterization and catalytic activity measurements were performed using pNPP as a substrate. […] Thus the D2 domain appears to have a regulatory role in both RPTPs- decreasing the catalytic activity in the case of DLAR while increasing the catalytic activity in the case of PTP99A (Figure 1b).

DLAR D1 D2HSS [3] = target: T1, DLAR D1 D2HSS; assay: Phosphatase assay using pNPP, DLAR D1 D2HSS; assay type: biochemical; conditions: CGH buffer pH 6.5, 100 mM NaCl, 2 mM DTT
Description: as §1, §2

Compound	kon (DLAR D1 D2HSS [1]; pH 8, SPR Biacore-2000, 25°C, 10 mM HEPES pH 8.0, 150 mM NaCl, 10 mM DTT, 3 mM EDTA, peptides 50–700 µM, first binding site)	kon (DLAR D1 D2HSS [1]; pH 8, SPR, 25°C, pH 8.0, second binding site)	PTPase activity [2]	Kcat (PTP99A D1)	Vmax (PTP99A D1; Michaelis-Menten fit)	Vmax (DLAR D1D2; 25 mM Citrate, Glycine and HEPES (CGH), pH 6.5, 100 mM NaCl, Michaelis-Menten fit)	Kcat (DLAR D1D2; CGH buffer pH 6.5, 100 mM NaCl)	Kcat/Km (DLAR D1D2; CGH buffer pH 6.5, 100 mM NaCl)	Kcat (DLAR D1 D2HSS [3])	Kcat/Km (DLAR D1 D2HSS [3])	Vmax (DLAR D1 D2HSS [3]; Michaelis-Menten fit)
CC(C)C[C@H](NC(=O)[C@H](C)NC(=O)CNC(=O)[C@H](Cc1ccc(OP(=O)(O)O)cc1)NC(=O)[C@H](CC(=O)O)NC(=O)[C@@H]1CCCN1C(=O)[C@H](CCC(=O)O)NC(=O)[C@H](C)NC(=O)[C@@H](N)[C@@H](C)O)C(=O)N[C@@H](Cc1ccc(O)cc1)C(=O)N[C@@H](CCC(=O)O)C(=O)O [Cuticle peptide] (H-TAEPD[pY]GALYE-OH)	51.7 ± 0.61 M⁻¹ s⁻¹	1.37 ± 0.4 M⁻¹ s⁻¹									
O=[N+]([O-])c1ccc(OP(=O)(O)O)cc1 [pNPP, para-Nitrophenylphosphate]			inactive enzyme	0.14 ± 0.01 s⁻¹	0.22 µmol/min/mg and 0.22 ± 0.01 µmol/min/mg	6.19 µmol/min/mg and 6.19 ± 0.14 µmol/min/mg	6.88 ± 0.16 s⁻¹	3.23 ± 0.09 x 10^3 sec^-1M^-1	6.49 ± 0.17 s⁻¹	1.97 ± 0.10 x 10^3 sec^-1M^-1	5.84 ± 0.15 µmol/min/mg
